Measurements taken from US7985731B2, “Sugar chain added GLP-1 peptide” (Otsuka Chemical Holdings Co., Ltd., priority 2007, dated 2011).
Peptide text beside a SMILES is read from it. * marks the point of attachment. X1 = CC(=O)N[C@@H]1[C@@H](O)[C@H](O[C@@H]2O[C@H](CO)[C@@H](O[C@@H]3O[C@H](CO[C@H]4O[C@H](CO)[C@@H](O)[C@H](O)[C@@H]4O[C@@H]4O[C@H](CO)[C@@H](O[C@@H]5O[C@H](CO[C@]6(C(=O)O)C[C@H](O)[C@@H](NC(C)=O)[C@H]([C@H](O)[C@H](O)CO)O6)[C@H](O)[C@H](O)[C@H]5O)[C@H](O)[C@H]4NC(C)=O)[C@@H](O)[C@H](O[C@H]4O[C@H](CO)[C@@H](O)[C@H](O)[C@@H]4O[C@@H]4O[C@H](CO)[C@@H](O[C@@H]5O[C@H](CO[C@]6(C(=O)O)C[C@H](O)[C@@H](NC(C)=O)[C@H]([C@H](O)[C@H](O)CO)O6)[C@H](O)[C@H](O)[C@H]5O)[C@H](O)[C@H]4NC(C)=O)[C@@H]3O)[C@H](O)[C@H]2NC(C)=O)[C@@H](CO)O[C@H]1NC(=O)C*

Experiments:
[1] = test system: db/db (BKS.Cg-+Lepr db/+Lepr db/Jcl) mice; assay: Test Example 8: effect of lowering blood-sugar levels in diabetes model mice; type: in vivo; settings: 9 nmol/kg intraperitoneal
Procedure: The oligosaccharide chain added GLP-1 peptide prepared in Example 2, 3, 4, 21 or 23 or the GLP-1 prepared in Comparative Example 1 in a PBS solution (9 nmol/10 ml) was intraperitoneally administered at a dose of 10 ml/kg to BKS.Cg−+Lepr^db/+Lepr^db/Jcl mice (10 week old, male). Blood was collected from the orbits before the compound administration and 30 minutes, 60 minutes, 120 minutes, 180 minutes and 300 minutes after the compound administration. Blood-sugar levels were measured using ACCU-CHEK Aviva (Roche Diagnostics).
The db/db (BKS.Cg−+Lepr^db/+Lepr^db/Jcl) mice serving as diabetes model mice have a mutation in a receptor of leptin which is anorexigenic/energy metabolism-accelerating hormone and develops conditions such as obesity or hyperglycemia.
Blood-sugar levels were measured over time, and their effects of lowering blood-sugar levels were compared with that of the GLP-1 without oligosaccharide chain addition of Comparative Example 1.

C57BL/6JJcl mice = assay: Test Example 7: Oral Glucose Tolerance Test (OGTT); type: in vivo
Procedure: After 30 minutes, a glucose solution was orally administered at a dose of 1 mg/g. Blood was collected from the orbits before the glucose administration and 30 minutes, 60 minutes and 120 minutes after the glucose administration. Blood-sugar levels were measured using ACCU-CHEK Aviva (Roche Diagnostics).
After the oral administration of the glucose solution to the mice fasted overnight, blood was collected over time, and blood-sugar levels were measured.
The correlation between the oligosaccharide chain structure and the activity was studied in mouse OGTT.

mouse GLP-1 receptor = biological target: T1, mouse GLP-1 receptor (Mus musculus, UniProt O35659); assay: Test Example 6: ability to synthesize cAMP in mouse GLP-1 receptor-expressing CHO-K1 cells; type: cell-based
T1 construct: expressed in transfected cells
T1 sequence (O35659 22-463): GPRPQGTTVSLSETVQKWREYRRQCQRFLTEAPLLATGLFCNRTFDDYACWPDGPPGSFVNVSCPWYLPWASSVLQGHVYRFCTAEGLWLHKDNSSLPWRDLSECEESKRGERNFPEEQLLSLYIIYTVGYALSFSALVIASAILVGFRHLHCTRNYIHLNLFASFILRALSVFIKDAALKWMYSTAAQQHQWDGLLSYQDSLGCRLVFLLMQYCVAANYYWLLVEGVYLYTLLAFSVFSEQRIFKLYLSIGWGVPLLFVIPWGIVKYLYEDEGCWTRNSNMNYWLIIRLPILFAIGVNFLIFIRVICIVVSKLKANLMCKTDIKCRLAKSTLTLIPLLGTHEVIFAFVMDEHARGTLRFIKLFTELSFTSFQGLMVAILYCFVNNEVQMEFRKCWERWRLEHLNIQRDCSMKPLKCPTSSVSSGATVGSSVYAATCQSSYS
Procedure: 1. Construction of Mouse GLP-1 Receptor-Expressing Vector
A mouse GLP1 receptor sense primer (5′-[…]-3′) (SEQ ID NO: 152) and a mouse GLP-1 receptor antisense primer (5′-[…]-3′) (SEQ ID NO: 153) capable of binding to the 5′ and 3′ ends of mouse GLP-1 receptor cDNA were separately synthesized. PCR was performed using Ex Taq polymerase (TaKaRa) with cDNA (Clone ID: 40046534, Open Biosystems) as a template. Specifically, 50 μL in total of reaction solution consisting of 1 μL of template cDNA (10 ng/μL), 4 μL of 2.5 mM dNTPs, 1 μL of primer solution mixtures (each 50 μM), 5 μL of ×10 Ex Taq polymerase Buffer, 0.25 μL of Ex Taq polymerase and 38.75 μL of sterilized water was used and allowed to react by 94° C. for 1 minute; 94° C. for 45 seconds, 55° C. for 1 minute and 72° C. for 2 minutes (35 cycles); and 72° C. for 10 minutes. The PCR reaction product was electrophoresed on 1% agarose gel, and the cDNA fragment was purified using Wizard SV Gel and PCR Clean-up System (Promega) and treated with restriction enzymes (EcoRI and NheI) to obtain mouse GLP-1 receptor cDNA.
To efficiently obtain cells highly expressing a mouse GLP-1 receptor, a pIRES-gfp vector was used as an expression vector. This vector was prepared by inserting, to a vector pEGFP-N1 (Clontech), an IRES gene-containing DNA fragment obtained by the restriction enzyme treatment (Sal I and BamHI) of pIRESpuro2 (Clontech).
The mouse GLP-1 receptor cDNA fragment was inserted to pIRES-gfp to thereby obtain a mouse GLP-1 receptor-expressing vector mGLP-1R/pIRES-gfp. The DNA sequence of the obtained vector was confirmed using ABI3100-Avant (Applied Biosystems).
2. Preparation of Mouse GLP-1 Receptor-Expressing CHO-K1 Cells
CHO-K1 cells (ATCC catalog No. CCL-61) were transfected with the obtained mGLP-1R/pIRES-gfp using FuGENE (registered trademark) (Roche) according to the instruction manual. The transfected CHO-K1 cells were cultured in RPMI1640 medium (Wako Pure Chemical Industries) containing 10% FCS (Hyclone) and penicillin-streptomycin (SIGMA). Drug selection was conducted by the addition of 1.0 mg/ml G418 (Wako Pure Chemical Industries). The drug resistance cells were sorted with a cell sorter (EPICS ALTRA, Beckman Coulter) using a GFP expression level as an index. After the sorting, the limiting dilution method was conducted to obtain cells highly expressing GFP, namely, cells highly expressing a mouse GLP-1 receptor. The obtained cells were used as mouse GLP-1 receptor-expressing CHO-K1 cells in the experiment shown below.
3. Analysis of Agonist Effect of Oligosaccharide Chain Added GLP-1 Peptide (Ability to Synthesize cAMP)
The mouse GLP-1 receptor-expressing CHO-K1 cells prepared in the preceding paragraph 2 were used to evaluate the agonist effect of the oligosaccharide chain added GLP-1 peptide using the ability to synthesize cAMP as an index.
The mouse GLP-1 receptor-expressing CHO-K1 cells were suspended at a concentration of 5×10^5 cells/ml in RPMI1640 medium containing 10% FCS. The cell suspension was seeded at a concentration of 100 μL per well to a flat-bottomed 96-well plate (Falcon) and cultured at 5% CO2 at 37° C. for 16 hours. The culture supernatant was discarded. The oligosaccharide chain added GLP-1 peptide dissolved in Krebs Ringer bicarbonate Buffer containing 2.5 mM glucose was added at a concentration of 100 μL/well and cultured at 37° C. for 30 minutes. The culture supernatant was immediately discarded. The amount of cAMP synthesized in the mouse GLP-1 receptor-expressing CHO-K1 cells was measured using cAMP ELISA Kit (GE Healthcare or Cayman) and used as an index for the agonist effect of the oligosaccharide chain added GLP-1 peptide on mouse GLP-1 receptors.
GLP-1 increases intracellular cAMP concentrations through the binding to its receptor and promotes insulin secretion. Thus, the activity of the oligosaccharide chain added GLP-1 peptide was evaluated using the ability to synthesize cAMP as an index. […]

[2] = 9 nmol/kg intraperitoneal 30 minutes before glucose 1 mg/g oral

CC[C@H](C)[C@H](NC(=O)[C@H](Cc1ccccc1)NC(=O)[C@H](CCC(=O)O)NC(=O)[C@H](CCCCN)NC(=O)[C@H](C)NC(=O)[C@H](C)NC(=O)[C@H](CCC(N)=O)NC(=O)CNC(=O)[C@H](CCC(=O)O)NC(=O)[C@H](CC(C)C)NC(=O)[C@H](Cc1ccc(O)cc1)NC(=O)[C@H](CO)NC(=O)[C@H](CO)NC(=O)[C@@H](NC(=O)[C@H](CC(=O)O)NC(=O)[C@H](CO)NC(=O)[C@@H](NC(=O)[C@H](Cc1ccccc1)NC(=O)[C@@H](NC(=O)CNC(=O)[C@H](CCC(=O)O)NC(=O)[C@H](C)NC(=O)[C@@H](N)Cc1c[nH]cn1)[C@@H](C)O)[C@@H](C)O)C(C)C)C(=O)N[C@@H](CSCC(=O)N[C@@H]1O[C@H](CO)[C@@H](O[C@@H]2O[C@H](CO)[C@@H](O[C@@H]3O[C@H](CO[C@H]4O[C@H](CO)[C@@H](O)[C@H](O)[C@@H]4O[C@@H]4O[C@H](CO)[C@@H](O[C@@H]5O[C@H](CO[C@]6(C(=O)O)C[C@H](O)[C@@H](NC(C)=O)[C@H]([C@H](O)[C@H](O)CO)O6)[C@H](O)[C@H](O)[C@H]5O)[C@H](O)[C@H]4NC(C)=O)[C@@H](O)[C@H](O[C@H]4O[C@H](CO)[C@@H](O)[C@H](O)[C@@H]4O[C@@H]4O[C@H](CO)[C@@H](O[C@@H]5O[C@H](CO[C@]6(C(=O)O)C[C@H](O)[C@@H](NC(C)=O)[C@H]([C@H](O)[C@H](O)CO)O6)[C@H](O)[C@H](O)[C@H]5O)[C@H](O)[C@H]4NC(C)=O)[C@@H]3O)[C@H](O)[C@H]2NC(C)=O)[C@H](O)[C@H]1NC(C)=O)C(=O)N[C@@H](Cc1c[nH]c2ccccc12)C(=O)N[C@@H](CC(C)C)C(=O)N[C@H](C(=O)N[C@@H](CCCCN)C(=O)NCC(=O)N[C@@H](CCCNC(=N)N)C(=O)NCC(=O)O)C(C)C [Example 21, 30Cys GLP-1-disialo] (H-HAEGTFTSDVSSYLEGQAAKEFIC(X1)WLVKGRG-OH)
effect of lowering blood-sugar levels in db/db mice ([1]; 10-week-old male mice): strong effect of lowering blood-sugar levels | durability of effect of lowering blood-sugar levels in db/db mice ([1]; up to 300 minutes): blood-sugar levels were kept at low levels after 300 minutes | activity of suppressing rise in blood-sugar levels in OGTT (C57BL/6JJcl mice; 0.09 nmol/kg intraperitoneal): weaker activity of suppressing rise in blood-sugar levels than that of the 36Cys GLP-1-disialo at the same dose | effect of suppressing rise in blood-sugar levels in OGTT (C57BL/6JJcl mice; 0.9 nmol/kg intraperitoneal): suppressed rise in blood-sugar levels almost completely | effect of suppressing rise in blood-sugar levels in OGTT (C57BL/6JJcl mice; [2]): strong effect of suppressing rise in blood-sugar levels | dose dependence of activity of suppressing rise in blood-sugar levels in OGTT (C57BL/6JJcl mice; doses 0.9 nmol/kg and 0.09 nmol/kg intraperitoneal): dose-dependent activity of suppressing rise in blood-sugar levels | cAMP synthesis activity compared with GLP-1 (in words) (mouse GLP-1 receptor): activity equal to or more than that of the GLP-1

CC[C@H](C)[C@H](NC(=O)[C@H](Cc1ccccc1)NC(=O)[C@H](CCC(=O)O)NC(=O)[C@H](CSCC(=O)N[C@@H]1O[C@H](CO)[C@@H](O[C@@H]2O[C@H](CO)[C@@H](O[C@@H]3O[C@H](CO[C@H]4O[C@H](CO)[C@@H](O)[C@H](O)[C@@H]4O[C@@H]4O[C@H](CO)[C@@H](O[C@@H]5O[C@H](CO)[C@H](O)[C@H](O)[C@H]5O)[C@H](O)[C@H]4NC(C)=O)[C@@H](O)[C@H](O[C@H]4O[C@H](CO)[C@@H](O)[C@H](O)[C@@H]4O[C@@H]4O[C@H](CO)[C@@H](O[C@@H]5O[C@H](CO)[C@H](O)[C@H](O)[C@H]5O)[C@H](O)[C@H]4NC(C)=O)[C@@H]3O)[C@H](O)[C@H]2NC(C)=O)[C@H](O)[C@H]1NC(C)=O)NC(=O)[C@H](C)NC(=O)[C@H](C)NC(=O)[C@H](CCC(N)=O)NC(=O)CNC(=O)[C@H](CCC(=O)O)NC(=O)[C@H](CC(C)C)NC(=O)[C@H](Cc1ccc(O)cc1)NC(=O)[C@H](CO)NC(=O)[C@H](CO)NC(=O)[C@@H](NC(=O)[C@H](CC(=O)O)NC(=O)[C@H](CO)NC(=O)[C@@H](NC(=O)[C@H](Cc1ccccc1)NC(=O)[C@@H](NC(=O)CNC(=O)[C@H](CCC(=O)O)NC(=O)[C@H](C)NC(=O)[C@@H](N)Cc1c[nH]cn1)[C@@H](C)O)[C@@H](C)O)C(C)C)C(=O)N[C@@H](C)C(=O)N[C@@H](Cc1c[nH]c2ccccc12)C(=O)N[C@@H](CC(C)C)C(=O)N[C@H](C(=O)N[C@@H](CCCCN)C(=O)NCC(=O)N[C@@H](CCCNC(=N)N)C(=O)NCC(=O)O)C(C)C [Example 25, 26Cys GLP-1-asialo]
effect of suppressing rise in blood-sugar levels in OGTT (C57BL/6JJcl mice; [2]): strong effect of suppressing rise in blood-sugar levels | cAMP synthesis activity compared with GLP-1 (in words) (mouse GLP-1 receptor): activity equal to or more than that of the GLP-1
